Data: the NIST ThermoML archive (doi:10.1016/j.jct.2010.08.019)
± gives the expanded uncertainty stated by the source.

Assay: refractive index (Na D-line) (dimensionless); xn = mol fraction of the nth substance listed
Conditions: 101 kPa, Liquid, Standard Abbe refractometry

Work on `C1CCOCC1` [tetrahydropyran] + CC(C)O yielded a refractive index (293.15 K, x2 = 0) of 1.39161 ± 0.00037, a refractive index (293.15 K, x2 = 0.0501) of 1.39085 ± 0.00037 and a refractive index (293.15 K, x2 = 0.0999) of 1.3902 ± 0.00036. For the same compound, the refractive index (293.15 K, x2 = 0.1499) was 1.38954 ± 0.00036, the refractive index (293.15 K, x2 = 0.2003) was 1.38897 ± 0.00036 and the refractive index (293.15 K, x2 = 0.2506) was 1.38839 ± 0.00036. For the same compound, the refractive index (293.15 K, x2 = 0.2999) was 1.38777 ± 0.00035, the refractive index (293.15 K, x2 = 0.35) was 1.38719 ± 0.00035 and the refractive index (293.15 K, x2 = 0.3999) was 1.3866 ± 0.00035. For the same compound, the refractive index (293.15 K, x2 = 0.4499) was 1.38599 ± 0.00035, the refractive index (293.15 K, x2 = 0.5001) was 1.38539 ± 0.00035 and the refractive index (293.15 K, x2 = 0.5502) was 1.38478 ± 0.00034. It also gave a refractive index (293.15 K, x2 = 0.6001) of 1.38415 ± 0.00034, a refractive index (293.15 K, x2 = 0.6499) of 1.38347 ± 0.00034 and a refractive index (293.15 K, x2 = 0.7001) of 1.3827 ± 0.00034. For the same compound, the refractive index (293.15 K, x2 = 0.7499) was 1.38194 ± 0.00034, the refractive index (293.15 K, x2 = 0.8) was 1.38113 ± 0.00033 and the refractive index (293.15 K, x2 = 0.8501) was 1.38021 ± 0.00033. The refractive index (293.15 K, x2 = 0.9001) was 1.37932 ± 0.00033, the refractive index (293.15 K, x2 = 0.9499) was 1.37832 ± 0.00033 and the refractive index (303.15 K, x2 = 0) was 1.3866 ± 0.00037. For the same compound, the refractive index (303.15 K, x2 = 0.0502) was 1.38571 ± 0.00037, the refractive index (303.15 K, x2 = 0.1001) was 1.38505 ± 0.00036 and the refractive index (303.15 K, x2 = 0.1501) was 1.38441 ± 0.00036. For the same compound, the refractive index (303.15 K, x2 = 0.1998) was 1.38377 ± 0.00036, the refractive index (303.15 K, x2 = 0.2499) was 1.3832 ± 0.00036 and the refractive index (303.15 K, x2 = 0.3) was 1.38259 ± 0.00035. The refractive index (303.15 K, x2 = 0.3499) was 1.38201 ± 0.00035, the refractive index (303.15 K, x2 = 0.4001) was 1.38144 ± 0.00035 and the refractive index (303.15 K, x2 = 0.4501) was 1.38087 ± 0.00035. The refractive index (303.15 K, x2 = 0.5001) was 1.38026 ± 0.00035, the refractive index (303.15 K, x2 = 0.55) was 1.37965 ± 0.00034 and the refractive index (303.15 K, x2 = 0.6) was 1.37903 ± 0.00034. For the same compound, the refractive index (303.15 K, x2 = 0.65) was 1.37841 ± 0.00034, the refractive index (303.15 K, x2 = 0.6999) was 1.37775 ± 0.00034 and the refractive index (303.15 K, x2 = 0.7499) was 1.37704 ± 0.00034. For the same compound, the refractive index (303.15 K, x2 = 0.8001) was 1.37633 ± 0.00033, the refractive index (303.15 K, x2 = 0.85) was 1.37553 ± 0.00033 and the refractive index (303.15 K, x2 = 0.8998) was 1.37469 ± 0.00033. For the same compound, the refractive index (303.15 K, x2 = 0.9499) was 1.3738 ± 0.00033, the refractive index (313.15 K, x2 = 0) was 1.38143 ± 0.00037 and the refractive index (313.15 K, x2 = 0.05) was 1.38065 ± 0.00037. It also gave a refractive index (313.15 K, x2 = 0.1) of 1.37995 ± 0.00036, a refractive index (313.15 K, x2 = 0.1501) of 1.37929 ± 0.00036 and a refractive index (313.15 K, x2 = 0.2) of 1.37868 ± 0.00036. It also gave a refractive index (313.15 K, x2 = 0.2499) of 1.37807 ± 0.00036, a refractive index (313.15 K, x2 = 0.2997) of 1.37748 ± 0.00035 and a refractive index (313.15 K, x2 = 0.3499) of 1.37692 ± 0.00035. The refractive index (313.15 K, x2 = 0.4) was 1.37632 ± 0.00035, the refractive index (313.15 K, x2 = 0.4504) was 1.37573 ± 0.00035 and the refractive index (313.15 K, x2 = 0.5001) was 1.37513 ± 0.00035. The refractive index (313.15 K, x2 = 0.55) was 1.37457 ± 0.00034, the refractive index (313.15 K, x2 = 0.5999) was 1.37399 ± 0.00034 and the refractive index (313.15 K, x2 = 0.65) was 1.37339 ± 0.00034. It also gave a refractive index (313.15 K, x2 = 0.7001) of 1.3728 ± 0.00034, a refractive index (313.15 K, x2 = 0.7502) of 1.37216 ± 0.00034 and a refractive index (313.15 K, x2 = 0.7999) of 1.37151 ± 0.00033. For the same compound, the refractive index (313.15 K, x2 = 0.85) was 1.37081 ± 0.00033, the refractive index (313.15 K, x2 = 0.8998) was 1.37005 ± 0.00033 and the refractive index (313.15 K, x2 = 0.9498) was 1.36931 ± 0.00033. For the same compound, the refractive index (323.15 K, x2 = 0) was 1.37627 ± 0.00037, the refractive index (323.15 K, x2 = 0.05) was 1.3752 ± 0.00037 and the refractive index (323.15 K, x2 = 0.1) was 1.37442 ± 0.00036. The refractive index (323.15 K, x2 = 0.1501) was 1.37378 ± 0.00036, the refractive index (323.15 K, x2 = 0.2) was 1.37312 ± 0.00036 and the refractive index (323.15 K, x2 = 0.2499) was 1.37252 ± 0.00036. It also gave a refractive index (323.15 K, x2 = 0.2997) of 1.37192 ± 0.00036, a refractive index (323.15 K, x2 = 0.3499) of 1.37127 ± 0.00035 and a refractive index (323.15 K, x2 = 0.4) of 1.37072 ± 0.00035. For the same compound, the refractive index (323.15 K, x2 = 0.4504) was 1.37012 ± 0.00035, the refractive index (323.15 K, x2 = 0.5001) was 1.3695 ± 0.00035 and the refractive index (323.15 K, x2 = 0.5501) was 1.36901 ± 0.00034. For the same compound, the refractive index (323.15 K, x2 = 0.6) was 1.36843 ± 0.00034, the refractive index (323.15 K, x2 = 0.65) was 1.36789 ± 0.00034 and the refractive index (323.15 K, x2 = 0.6999) was 1.36729 ± 0.00034. It also gave a refractive index (323.15 K, x2 = 0.7502) of 1.36664 ± 0.00034, a refractive index (323.15 K, x2 = 0.8002) of 1.36608 ± 0.00033 and a refractive index (323.15 K, x2 = 0.8501) of 1.36542 ± 0.00033. For the same compound, the refractive index (323.15 K, x2 = 0.8998) was 1.36485 ± 0.00033 and the refractive index (323.15 K, x2 = 0.9501) was 1.3642 ± 0.00033.
